The text below walks through data of paper PMC8305768, “Design, Synthesis and Antiparasitic Evaluation of Click Phospholipids” (Molecules, 2021).

Data set [1] concerns mitochondria of 786-0 cells. Description: Mitochondrial toxicity assay (MitoTracker Red CMXRos, 786-0 cells). Format: cell-based. Conditions: compounds 10 μM, miltefosine 10 μM or 1 μM. The procedure: Mitochondrial toxicity assay: This assay made use of the MitoTracker Red CMXRos dye (Thermo Fischer Scientific, Waltham, MA, USA), which stains the mitochondria in live cells and its accumulation is dependent on the presence of a membrane potential. The renal carcinoma 786-0 cell line was used for mitochondrial toxicity screening. Cells were harvested from a 75 cm^2 flask at 80% confluency by washing once with 5 mL of rt PBS and incubating with 1 mL of 0.05% v/v trypsin/0.02% v/v EDTA for 3 min. Cells were suspended in 10 mL of prewarmed cell culture media (RPMI-1 640 supplemented with 10% v/v FCS, 100 U/mL penicillin and 100 μg/mL streptomycin) and counted using a Scepter (Merck Millipore, Darmstadt, Germany). The 786-0 cells were diluted to 75,000 cells/mL and 20 μL of this suspension added to each well of a 384-well plate. Cells were incubated for 36 h at 37 °C and 5% CO2, and compounds were added using a predilution plate. The positive control was valinomycin at a final concentration of 1 μM, with the negative control being DMSO at the same concentration. Ten microliters of compounds and controls were added to cells and incubated for 6 h at 37 °C and 5% CO2 in a humidity controlled atmosphere. After incubation, 10 μL of a 200 nM solution of MitoTracker Red CMXRos in prewarmed cell culture media was added to each well, and the 786-0 cells were incubated for an additional 45 min at 37 °C and 5% CO2. MitoTracker Red CMXRos uptake was measured using an Opera Imaging System. To facilitate automatic image analysis, the layout containing the compound area and the valinomycin and DMSO control areas were created and stored. A sublayout of five evenly dispersed fields per well were used. These settings also included a measurement height of 1 μm, which was stored in an exposure file format. By using the stored settings and files, an automated run was repeatedly created and executed. The images were transferred to a file server and uploaded into Columbus 2.4.0 (PerkinElmer, Waltham, MA. USA) using the built-in helper function and analysed therein.

The subject of the next data set is A549 cells. Description: Cytotoxicity assay A549 (CellTiter-Glo). The data set is classed as cell-based, human. Conditions: compounds 10 μM; miltefosine 10 μM or 1 μM. The source says:
Early ADMET profiling: The early ADMET profiling of the new derivatives involved a group of assays widely used in drug development as part of the preclinical in vitro toxicity studies. In particular our panel included hERG inhibition, five cytochromes P450 (CYP1A2, CYP2C9, CYP2C19, CYP2D6 and CYP3A4), two cell-lines (A549, epithelial human lung adenocarcinoma, WI38 and foetal lung fibroblasts), Aurora B kinase and mitochondrial toxicity, in addition to the parasite relevant toxicity against THP1 macrophages. The compounds were tested at 10 μΜ, whilst the miltefosine control was tested at 10 μΜ or 1 μM. The toxicity of the new click phospholipids is depicted in Figure 3 in a traffic light format (from red through yellow to green for decreasing ADMET liabilities).
Cytotoxicity assay: A549 cells and WI-38 cells were grown on surface-modified T175 cell culture flasks in Dulbecco’s modified Eagle medium with 10% foetal calf serum (FCS), streptomycin (100 μg/mL) and 100 U/mL penicillin G. At about 80% confluency, cells were washed, trypsinized, resuspended and counted in RPMI-1640 medium before seeding (in triplicate) into white 384-well microtiter plates (20 μL) at 500 cells/well and incubated at 37 °C in the presence of 5% CO2 for 24 h. A total of 20 μL/well of CellTiter-Glo (CTG) reagent (Promega Corp., Madison, WI, USA) was added to each well, and plates were read using an EnVision Multilabel 2103 Reader after a 10-min incubation in the dark. Dose–response assays for compounds made use of 11-point curves. Each test compound (200 nL of 10 mM top concentration in 100% v/v DMSO) was added to cells seeded in polystyrene 384-well cell culture microtiter plates using the Echo 550 Liquid Handler and read after 24 h of incubation at 37 °C in the presence of 5% CO2 using CTG as described above. The compounds/positive control (paclitaxel with final concentration of 10 μM and 1% v/v DMSO) and no compound (final 1% v/v DMSO) were added into the 384-well plates (200 nL/well; 1% v/v DMSO) using the Echo 550 Liquid Handler. The raw luminescence signal of each sample was converted into the percentage of cell growth.

In data set [2] the test system is T. cruzi Y strain intracellular amastigotes. Description: Activity against T. cruzi Y strain intracellular amastigotes (HG39 cell-line, parasite load). Conditions: Trypanosoma cruzi, read-out: Parassite Load Reduction (%). Format: cell-based. The procedure: T. cruzi epimastigotes (Y strain) were obtained by axenic cultivation in the LIT medium, supplemented with 10% FBS (Cultilab, São Paulo, Brazil). Cultures were maintained at […] for 4–5 days until they reached the log growth phase. New cultures were made every 4 days from the initial inoculum of 2 × 10^6 parasites/mL. T. cruzi trypomastigotes (Y strain) were maintained in culture by the infection of LLC-MK2 (ATTC-CCL7) epithelial cells. This cell line was cultured in […] tissue culture bottles (TPP) in RPMI 1640 medium (Gibco), (Thermo Fischer Scientific, Carlsbad, CA, USA) supplemented with 10% FBS (Gibco) (Thermo Fischer Scientific, Carlsbad, CA, USA). Cultures were maintained at 37 °C under 5% CO2 atmosphere, and RPMI 1640 medium and SFB were exchanged every 48 h. After confluence, the cultures were treated with 1 mL of a mixture of trypsin and versene (Sigma, São Paulo, Brazil) (0.2 and 0.002%, respectively). After 24 h, a subconfluence culture was infected with the trypomastigotes in the approximate proportion of 10:1 parasites/cell. From five to seven days post infection, the trypomastigote stage was obtained from the culture supernatant. Alternatively (Figure 2), T. cruzi strain Y was maintained as previously described.

Structures can show the parent of a compound that is named as a salt.

For `CCCCCc1cn(CCCCCCCCCCCOP(=O)([O-])OCC[N+](C)(C)C)nn1` [Compound 25, 11-(4-pentyl-1H-1,2,3-triazol-1-yl)undecyl (2-(trimethylammonio)ethyl) phosphate inner salt], the “% toxicity ± SD at 10 μΜ Mitochondria” value in data set [1] was determined as 11.05%. Moreover, in the data set with A549 cells, the “% cell growth ± SD at 10 μΜ A549” value came out at 114.88%. Besides, in data set [2], the inhibition of growth at 10 µM was 66.2%.

Take `C[N+](C)(C)CCOP(=O)([O-])OCCCCCCCCCCCn1cc(CC2CCCC2)nn1` [Compound 28, 11-(4-(cyclopentylmethyl)-1H-1,2,3-triazol-1-yl)undecyl (2-(trimethylammo nio)ethyl) phosphate inner salt]: the “% toxicity ± SD at 10 μΜ Mitochondria” value in data set [1] amounted to 8.99%. In addition, the “% cell growth ± SD at 10 μΜ A549” value in the data set on A549 cells was 121.51%. In addition, the inhibition of growth at 10 µM in data set [2] came to 58.3%.

With `C[N+](C)(C)CCOP(=O)([O-])OCCCCCCCCCCCn1cc(CC2CCCCC2)nn1` [Compound 29, 11-(4-(cyclohexylmethyl)-1H-1,2,3-triazol-1-yl)undecyl (2-(trimethylammonio)ethyl) phosphate inner salt], the “% toxicity ± SD at 10 μΜ Mitochondria” value in data set [1] is 1.08%. In addition, in the data set with A549 cells, the “% cell growth ± SD at 10 μΜ A549” value is 120.63%. Besides, the inhibition of growth at 10 µM in data set [2] was determined as 69.9%.

With `C[N+](C)(C)CCOP(=O)([O-])OCCCCCn1cc(CCCCCCCCNC(=O)OCc2ccccc2)nn1` [Compound 31, 5-(4-(8-(((benzyloxy)carbonyl)amino)octyl)-1H-1,2,3-triazol-1-yl)pentyl (2-(trimethylammonio)ethyl) phosphate inner salt], the “% toxicity ± SD at 10 μΜ Mitochondria” value in data set [1] was determined as 5.07%. The “% cell growth ± SD at 10 μΜ A549” value in the data set with A549 cells was found to be 108.64%. In addition, the inhibition of growth at 10 µM in data set [2] amounted to 0%.

As to `C[N+](C)(C)CCOP(=O)([O-])OCCCCCCCCCCCn1cc(CCCCCCCCNC(=O)OCc2ccccc2)nn1` [Compound 32, 11-(4-(8-(((benzyloxy)carbonyl)amino)octyl)-1H-1,2,3-triazol-1-yl)undecyl (2-(trimethylammonio)ethyl) phosphate inner salt], in data set [2], the inhibition of growth at 10 µM is 0%.

As for `C[N+](C)(C)CCCOP(=O)([O-])OCCCCCCCCCCCn1cc(CC2CCCCC2)nn1` [Compound 33, 11-(4-(cyclohexylmethyl)-1H-1,2,3-triazol-1-yl)undecyl (3-(trimethylammonio)propyl) phosphate inner salt], the “% toxicity ± SD at 10 μΜ Mitochondria” value in data set [1] is -1 ± 4.35%. In the data set on A549 cells, the “% cell growth ± SD at 10 μΜ A549” value is recorded as 114.14%. Further, the inhibition of growth at 10 µM in data set [2] was 0%.

On to `C[N+](C)(C)CCOP(=O)([O-])OCCCCCCCCCCCn1cc(CCCCCCCCC(=O)O)nn1` [Compound 34, 11-(4-(8-carboxyoctyl)-1H-1,2,3-triazol-1-yl)undecyl (2-(trimethylammonio)ethyl) phosphate inner salt], for which the inhibition of growth at 10 µM in data set [2] was determined as 0%.

Take `C[N+](C)(C)CCOP(=O)([O-])OCCCCCn1cc(CCCCCCCCN)nn1` [Compound 35, 5-(4-(8-aminooctyl)-1H-1,2,3-triazol-1-yl)pentyl (2-(trimethylammonio)ethyl) phosphate inner salt]: the “% toxicity ± SD at 10 μΜ Mitochondria” value in data set [1] came out at 6.58%. In addition, the “% cell growth ± SD at 10 μΜ A549” value in the data set on A549 cells was found to be 100.96%. Also, the inhibition of growth at 10 µM in data set [2] is 0%.

Regarding `CCCCCCCCCCc1cc(CCCCCCCCCCOP(=O)([O-])OCC[N+](C)(C)C)no1` [Compound 41, 10-(5-decylisoxazol-3-yl)decyl (2-(trimethylammonio)ethyl) phosphate inner salt], the “% toxicity ± SD at 10 μΜ Mitochondria” value in data set [1] amounted to 2.99%. Further, the “% cell growth ± SD at 10 μΜ A549” value with A549 cells is reported as 85.15%. Further, the inhibition of growth at 10 µM in data set [2] worked out at 63.3%.

With `CCCCCCCCc1noc(CCCCCOP(=O)([O-])OCC[N+](C)(C)C)n1` [Compound 53, 5-(3-octyl-1,2,4-oxadiazol-5-yl)pentyl (2-(trimethylammonio)ethyl) phosphate inner salt], in data set [1], the “% toxicity ± SD at 10 μΜ Mitochondria” value is given as “–1.08%”. For the same compound, in the data set with A549 cells, the “% cell growth ± SD at 10 μΜ A549” value is listed as 87.74%. Further, the inhibition of growth at 10 µM in data set [2] is 44.5%.

Consider `CCCCCCCCc1noc(CCCCCCCCCCOP(=O)([O-])OCC[N+](C)(C)C)n1` [Compound 54, 10-(3-octyl-1,2,4-oxadiazol-5-yl)decyl (2-(trimethylammonio)ethyl) phosphate inner salt], for which the “% toxicity ± SD at 10 μΜ Mitochondria” value in data set [1] came to 8.56%. Moreover, in the data set with A549 cells, the “% cell growth ± SD at 10 μΜ A549” value turned out to be 85.82%. Moreover, the inhibition of growth at 10 µM in data set [2] came out at 90.5%.

Take `CCCCCCCc1nnc(CCCCCCCCCCOP(=O)([O-])OCC[N+](C)(C)C)o1` [Compound 65, 10-(5-heptyl-1,3,4-oxadiazol-2-yl)decyl (2-(trimethylammonio)ethyl) phosphate inner salt]: in data set [1], the “% toxicity ± SD at 10 μΜ Mitochondria” value is given as 40.25%. In addition, the “% cell growth ± SD at 10 μΜ A549” value in the data set with A549 cells was determined as 90.48%. For the same compound, the inhibition of growth at 10 µM in data set [2] was 92.2%.

Consider `CCCCCCCCCCCc1nnc(CCCCCCCCCCOP(=O)([O-])OCC[N+](C)(C)C)o1` [Compound 66, 2-(trimethylammonio)ethyl (10-(5-undecyl-1,3,4-oxadiazol-2-yl)decyl) phosphate inner salt], for which the “% toxicity ± SD at 10 μΜ Mitochondria” value in data set [1] was found to be 19.78%. Further, the “% cell growth ± SD at 10 μΜ A549” value in the data set on A549 cells was found to be 90.83%. In data set [2], the inhibition of growth at 10 µM worked out at 69.7%.

As for `CCCCCCCCCCCCCCCCOP(=O)([O-])OCC[N+](C)(C)C` [Miltefosine, hexadecylphosphocholine, reference compound], the “% toxicity ± SD at 10 μΜ Mitochondria” value in data set [1] is 3.99%. In addition, the “% cell growth ± SD at 10 μΜ A549” value in the data set with A549 cells is 95.80%. In addition, the inhibition of growth at 10 µM in data set [2] was determined as 71.9%.
